{
  "source": "patent US10086007B2",
  "about": "“Materials and methods for treatment of cystic fibrosis and for induction of ion secretion” (priority 2012, dated 2018)",
  "key": {"ileal mucosa": {"test_system": "ileal mucosa", "format": "cell-based, mouse", "source_text": "Normally fed, 8-week-old, male NIH Swiss mice are sacrificed by CO2 inhalation, followed by cervical dislocation. The small intestine is gently removed, and the segment is washed and flushed in ice-cold Ringer's solution. Then the mucosa is separated from the serosa and the muscular layers by stripping through the submucosal plane as previously described (Zhang et al. (2007) J Physiol 581(3):1221-1233). Following exsanguinations, ileal mucosa is obtained from a 10 cm segment close to the caecum. All experiments are approved by the University of Florida Institutional Animal Care and Use Committee.\nIon transport studies are performed on ileal sheets. Tissues are then mounted in between the two halves of an Ussing type-Lucite chamber with 0.3 cm^2 exposed surface areas (P2304, Physiologic Instruments, San Diego, Calif., USA). Regular Ringer's solution (115 mM NaCl, 25 mM NaHCO3, 4.8 mM K2HPO4, 2.4 mM KH2PO4, 1.2 mM MgCl2 and 1.2 mM CaCl2) bubbled with 95% O2: 5% CO2 is used bilaterally as bathing solution for the tissues and the temperature is maintained constant at 37° C. The chambers are balanced to eliminate osmotic and hydrostatic forces. Resistance due to fluid is also compensated. The tissues are allowed to stabilize. The basal short-circuit current (Isc) and the corresponding conductance (G) are recorded using a computer controlled voltage/current clamp device (VCC MC-8, Physiologic Instruments).\nThe tissues are incubated with H-89 for 30 minutes. Increasing concentrations of glucose (0.015-8 mM) are added every 5 minutes and the peak current is noted. Saturation kinetic constant is calculated for the corresponding Km and Vmax for treated and untreated tissues."}, "Caco-2 cells [1]": {"test_system": "Caco-2 cells", "assay": "Confocal Ca2+ fluorescence microscopy (Fluo-8)", "format": "cell-based", "experimental": "Caco-2 cells are obtained from ATTC and cultured in Dulbecoo's modified Eagle's medium supplemented with 10% fetal calf serum (FCS) and 1% nonessential amino acids at 37° C. and 5% CO2. Caco-2 cells are passaged for 20-25 times and are seeded (2×10^5 cells/dish) on 5 cm petri-dishes and grown until 80% confluence, when the FCS concentration is changed to 5%. Cells are grown for another 10 days before they are used for functional studies.\nCaco2 cells grown in 25 mm round coverslips are mounted on the bath chamber RC-21BR attached to series 20 stage adapter (Warner Instruments, CT USA). The cells are maintained at 37° C. using a single channel table top heater controller (TC-324B, Warner Instruments, CT USA). Cells are loaded with the fluorescent calcium indicator Fluo-8 AM dye (Cat #0203, TEFLab, Inc., Austin, Tex. USA) at 0.5 μM concentration at room temperature and incubated for 45 minutes. Confocal laser scanning microscopy is performed using an inverted Fluoview 1000 IX81 microscope (Olympus, Tokyo, Japan) and a U Plan S-Apo 20× objective. Fluorescence is recorded by argon lasers with excitation at 488 nm and emission at 515 nm. The Fluorescent images are collected with scanning confocal microscope. […] Changes are recorded and fluorescence is measured for various cells. […]"}, "Caco-2 cells [2]": {"test_system": "Caco-2 cells", "assay": "Ussing chamber Isc in Caco-2 cells grown on permeable inserts", "format": "cell-based", "settings": "added to the apical side of Caco-2 cells", "experimental": "Caco-2 cells are obtained from ATTC and cultured in Dulbecoo's modified Eagle's medium supplemented with 10% fetal calf serum (FCS) and 1% nonessential amino acids at 37° C. and 5% CO2. […] Cells are grown for another 10 days before they are used for functional studies."}, "NFA-sensitive current": {"test_system": "NFA-sensitive current", "assay": "Isc with NSP4 peptide and glucose (FIG. 6)", "format": "cell-based"}, "Caco-2 cells [3]": {"test_system": "Caco-2 cells", "assay": "Gramicidin perforated whole cell currents (patch clamp)", "format": "cell-based", "design": "dose or concentration left out as unconfirmed", "settings": "in the continued presence of glucose"}, "chloride secretion": {"test_system": "chloride secretion", "assay": "Chloride secretion with NSP4 peptide and glucose (FIG. 7)", "format": "cell-based"}, "small intestine cells": {"test_system": "small intestine cells", "assay": "Glucose-induced HCO3- secretion in small intestine cells", "format": "cell-based", "design": "dose or concentration left out as unconfirmed"}},
  "data": [
    {"smiles": "CO[C@@H]([C@H](O)[C@H](O)CO)[C@@H](O)C=O", "note": "[3-OMG, 3-O-methylglucose]", "values": [
      {"measurement": "Vmax of Isc increase", "setting": "ileal mucosa; increasing concentration added to lumen side, Michaelis-Menten fit, n=6 tissues", "value": "1.9±0.13", "unit": "μeq·h^−1·cm^−2"},
      {"measurement": "Km", "setting": "ileal mucosa; increasing concentration added to lumen side, Michaelis-Menten fit, n=6 tissues, read-out: Km of Isc increase", "value": "220 ± 70", "unit": "µM"},
      {"measurement": "intracellular Ca^2+ increase compared to similar concentration of glucose", "setting": "Caco-2 cells [1]", "value": "little increase"}
    ]},
    {"smiles": "O=C(O)CN(CC(=O)O)c1ccccc1OCCOc1ccccc1N(CC(=O)O)CC(=O)O", "note": "[BAPTA]", "values": [
      {"measurement": "glucose-stimulated increase in intracellular Ca^2+ after pre-incubation", "setting": "Caco-2 cells [1]; pre-incubating the cells 45 minutes with BAPTA", "value": "fails to show a glucose-stimulated increase"}
    ]},
    {"smiles": "O=S(=O)(NCCNC/C=C/c1ccc(Br)cc1)c1cccc2cnccc12", "note": "[H89, H-89]", "values": [
      {"measurement": "effect on glucose-stimulated net increase in Isc", "setting": "ileal mucosa; pre-treatment of small intestine cells with PKA inhibitor", "value": "significant reduction"}
    ]},
    {"smiles": "O=C(O)c1cccnc1Nc1cccc(C(F)(F)F)c1", "note": "[NFA, niflumic acid]", "values": [
      {"measurement": "inhibition of glucose-stimulated increase in Isc", "setting": "ileal mucosa; 100 μM to the lumen side, 8 mM glucose", "value": "partial inhibition"},
      {"measurement": "inhibition of glucose-stimulated increase in Isc", "setting": "Caco-2 cells [2]", "value": "significant inhibition"},
      {"measurement": "inhibition of anion secretion induced by NSP4 peptide and glucose", "setting": "NFA-sensitive current", "value": "not completely inhibited"},
      {"measurement": "effect on NSP4114-135-stimulated current", "setting": "NFA-sensitive current; NFA 100 μM", "value": "abolishes"},
      {"measurement": "effect on glucose activated inward current", "setting": "Caco-2 cells [3]", "value": "inhibits the glucose activated inward current"},
      {"measurement": "inhibition of chloride secretion induced by NSP4 peptide and glucose", "setting": "chloride secretion", "value": "not completely inhibited"}
    ]},
    {"smiles": "O=C(O)c1cc([N+](=O)[O-])ccc1NCCCc1ccccc1", "note": "[NPPB]", "values": [
      {"measurement": "inhibition of glucose-induced, anion channel-mediated HCO3^− secretion", "setting": "small intestine cells; NPPB", "value": "significant inhibition"},
      {"measurement": "glucose-induced, anion channel-mediated HCO3^− secretion", "setting": "small intestine cells; with NPPB", "value": "4.2±0.7", "unit": "mEq·h^−1·cm^−2"}
    ]},
    {"smiles": "O=C(CCc1ccc(O)cc1)c1c(O)cc(O)cc1O[C@@H]1O[C@H](CO)[C@@H](O)[C@H](O)[C@H]1O", "note": "[phlorizin]", "values": [
      {"measurement": "Isc response to increasing glucose in pre-treated tissues", "setting": "ileal mucosa; tissues pre-treated with phlorizin", "value": "no response to glucose"}
    ]}
  ]
}
